The values below are quoted from earlier work in patent publication EP4729530A1, “NOVEL PEPTIDE AND USE THEREOF” (Gemvax & Kael Co., Ltd., priority 2023, dated 2024).

As a reminder, the EC50 is the concentration needed to bring the measured effect to its halfway point. Broadly, the GI50 is the concentration at which growth is held to half of that of the control.

The target in data set [1] is tau (Homo sapiens, UniProt P10636). The conditions noted are these: read-out: tau aggregation inhibition range (EC50); cited from earlier work.
For data set [2] the following is noted: read-out: cytotoxicity (GI50); cited from earlier work.

Chain of tau (P10636 whole entry): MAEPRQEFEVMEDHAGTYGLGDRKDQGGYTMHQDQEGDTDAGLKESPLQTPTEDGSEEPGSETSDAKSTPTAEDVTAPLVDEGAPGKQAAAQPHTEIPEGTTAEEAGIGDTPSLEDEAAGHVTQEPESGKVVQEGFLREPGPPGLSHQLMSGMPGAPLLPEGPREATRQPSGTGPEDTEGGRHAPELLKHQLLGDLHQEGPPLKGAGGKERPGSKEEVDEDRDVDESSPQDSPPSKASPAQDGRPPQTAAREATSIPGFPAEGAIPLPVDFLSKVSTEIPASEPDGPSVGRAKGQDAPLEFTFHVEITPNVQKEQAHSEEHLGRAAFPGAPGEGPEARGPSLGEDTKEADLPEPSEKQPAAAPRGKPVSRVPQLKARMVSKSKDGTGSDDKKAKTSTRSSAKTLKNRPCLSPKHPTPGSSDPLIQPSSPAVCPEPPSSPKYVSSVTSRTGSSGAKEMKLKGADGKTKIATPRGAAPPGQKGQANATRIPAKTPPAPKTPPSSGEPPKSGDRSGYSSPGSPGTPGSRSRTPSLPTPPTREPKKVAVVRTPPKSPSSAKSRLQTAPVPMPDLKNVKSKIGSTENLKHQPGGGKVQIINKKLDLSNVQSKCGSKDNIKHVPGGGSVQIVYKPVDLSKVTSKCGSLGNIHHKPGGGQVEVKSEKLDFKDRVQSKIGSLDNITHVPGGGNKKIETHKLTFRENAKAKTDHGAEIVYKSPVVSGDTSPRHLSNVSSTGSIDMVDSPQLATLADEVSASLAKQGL

For `CN(C)c1ccc2c(c1)Sc1cc(N(C)C)ccc1N2` [LMTM], the EC50 in data set [1] is 2.2 ± 0.2 µM. Moreover, in data set [2], the GI50 was 6.4 ± 0.3 µM.
